Data on one substance can be found in patent EP4060021A1, “MIMETIC MICROBIOLOGICAL CULTURE MEDIUM AND USES THEREOF” (BIOFILM PHARMA, priority 2021, dated 2022).

Assay [1] has as its system souches de S. aureus issues de prélèvements de plaies du pied infectées chez des patients diabétiques. Put plainly: Antibiotic susceptibility test (MIC, 96-well microplate, OD 600 nm) in Mueller-Hinton medium (MH). The assay is classed as cell-based. Further details: key to Classification (S) ou (R) en MH: S (sensible); R (résistante). The text has this:
(§1) • La Figure 1 représente des courbes de croissance de bactéries en fonction du milieu de culture. Sur cette figure, les ordonnées correspondent au logarithme d'unités formant colonie par millilitre de milieu de culture (Log UFC/ml) et les abscisses, au temps en heure (H). La Figure 1A représente les courbes correspondant à la croissance de 2 souches de S. aureus, Newman (gauche) et SAC1 (droite), dans le milieu BHI (courbe avec indicateurs ronds) et un exemple de milieu selon l'invention (MP) (courbe avec indicateurs carrés). La Figure 1B représente les courbes correspondant à la croissance de 2 souches de P. aeruginosa, PAO1 (gauche) et PAC1 (droite), dans le milieu BHI (courbe avec indicateurs ronds) et un exemple de milieu selon l'invention (MP) (courbe avec indicateurs carrés). La Figure 1C représente les courbes correspondant à la croissance de 2 souches cliniques S. aureus SAC1 et P. aeruginosa PAC1, en coculture dans le milieu BHI (P. aeruginosa BHI ou S. aureus BHI) et un exemple de milieu selon l'invention (MP) (P. aeruginosa MP ou S. aureus MP). La mesure de différence significative, réalisée par le test de Student, entre les valeurs d'UFC/mL est exprimée, soit par (***) qui correspond à une p-value <0,001, soit par (**) qui correspond à une p-value <0,01. • La Figure 2 représente les résultats obtenus d'une détermination de l'adhésion et de la formation de biofilm par dénombrement à 24h. Sur cette figure, les ordonnées correspondent au logarithme d'unités formant colonie par millilitre de milieu de culture (Log UFC/ml). La Figure 2A représente un histogramme ou diagramme en bâton du nombre de bactéries dénombrées suite à des cultures séparées de souche S. aureus Newman (Newman), S. aureus SAC1 (SAC 1), P. aeruginosa PAO1 (PAO1) ou P. aeruginosa PAC1 (PAC1), pendant 24H dans un milieu BHI (BHI) (bâtons noirs) ou dans un exemple de milieu selon l'invention (MP) (bâtons gris). La Figure 2B montre sous forme d'histogramme le nombre de bactéries dénombrées suite à des co-cultures des souches de référence S. aureus Newman et P. aeruginosa PAO1 (PAO1/Newman), ainsi que du couple de souches cliniques S. aureus SAC1 et P. aeruginosa PAC1 (PAC 1/SAC1), pendant 24H dans un milieu BHI (BHI) (bâtons noirs) ou dans un exemple de milieu selon l'invention (MP) (bâtons gris). La mesure de différence significative, réalisée par le test de Student, entre les valeurs d'UFC est exprimée, soit par (***) qui correspond à une p-value <0,001, soit par (**) qui correspond à une p-value <0,01. • La Figure 3 représente les résultats obtenus d'une détermination de sensibilité à des antibiotiques de souches cliniques de S. aureus issues d'infections de plaies du pied chez le diabétique. Les données cliniques, anonymisées, nécessaires à l'interprétation des résultats, consistaient en l'antibiothérapie donnée au patient, ainsi que la qualification par les médecins hospitaliers d'un succès ou échec thérapeutique. La définition de succès ou échec thérapeutique est définie comme suit. Le patient commence et suit l'antibiothérapie prescrite et un deuxième prélèvement microbiologique est effectué lors du dernier jour de traitement de la 1ère antibiothérapie (± 2 jours). Ce prélèvement est utilisé pour déterminer la présence/absence du pathogène ciblé par l'antibiothérapie, S. aureus. Si ce prélèvement a montré la persistance d'un S. aureus, l'antibiothérapie est en échec. A l'inverse, en cas d'absence de S. aureus, l'antibiothérapie est associée à un succès thérapeutique. Les antibiogrammes ont été réalisés classiquement sur une durée de 18h ± 2h en accord avec les recommandations de l'EUCAST. Une gamme de l'antibiotique à tester a été réalisée. • La Figure 3A montre sous forme d'histogramme les résultats des CMI déduites d'antibiogrammes sur 11 souches testées en présence d'amoxicilline / clavulanate de potassium (commercialisé par exemple sous le nom d'Augmentin (marque déposée)).

The test system is the same in assay [2]. Put plainly: Antibiotic susceptibility test (MIC, 96-well microplate, OD 600 nm) in wound medium of the invention (MP). The assay is classed as cell-based.
Description: as §1

For a further assay, the system named is souche de S. aureus. To be noted: modèle de sepsis, souris infectée par S. aureus, traitées; cited from earlier work.
Setting [3] is: souche associée à un succès thérapeutique.

As to cotrimoxazole, the “CMI en milieu MH” value in assay [1] (souche C01P0 01) is listed as 0,5 mg/L; in assay [1] (souche C01P0 11), 4 mg/L; in assay [1] (souche C03P0 02), 1 mg/L; in assay [1] (souche C03P0 07), 1 mg/L. Also, the “Classification (S) ou (R) en MH” value in assay [1] (souche C01P0 01), in assay [1] (souche C01P0 11), in assay [1] (souche C03P0 02) and in assay [1] (souche C03P0 07) was “(S)” each time. The “CMI dans le milieu MH” value in assay [1] (setting [3]) was 4 mg/L. The “CMI dans un exemple de milieu selon l'invention (MP)” value in assay [2] (3 souches associées à un échec thérapeutique) was determined as 16 mg/L. Besides, the “CMI en milieu plaie MP” value is 16 mg/L in assay [2] (souche C01P0 01), 8 mg/L in assay [2] (souche C01P0 11), 16 mg/L in assay [2] (souche C03P0 02) and 16 mg/L in assay [2] (souche C03P0 07). In addition, the “Classification (S) ou (R) en MP” value in assay [2] (souche C01P0 01) is “(R) (valeur de CMI mesurée dans l'exemple de milieu selon l'invention supérieure au seuil et peuvent être classifiées comme résistantes (noté R dans le tableau 5B))”; in assay [2] (souche C01P0 11), “(S) (avantageusement inférieur au seuil et peut être classifiée comme sensible (noté S dans le tableau 5B))”; in assay [2] (souche C03P0 02), “(R) (valeur de CMI mesurée dans l'exemple de milieu selon l'invention supérieure au seuil et peuvent être classifiées comme résistantes (noté R dans le tableau 5B))”; in assay [2] (souche C03P0 07), “(R) (valeur de CMI mesurée dans l'exemple de milieu selon l'invention supérieure au seuil et peuvent être classifiées comme résistantes (noté R dans le tableau 5B))”. The “CMI mesurée dans un exemple de milieu selon l'invention (MP)” value in assay [2] (setting [3]) was determined as 8 mg/L. For the same substance, the survie des souris entry in the assay on souche de S. aureus is on record as “n'a pas permis la survie des souris”.
